Results published in US20230257415A1, “COMPOUNDS FOR TREATING CNS DISORDERS” (SAGE THERAPEUTICS, INC., priority 2019, published 2023).

Target: GABAA receptor
Test: [35S]-TBPS binding assay, rat brain cortical membranes, in the presence of GABA
Conditions: inhibition of 3 nM [35S]-TBPS binding, 5 mM GABA, 90 min, room temp
Method: [35S]-t-Butylbicyclophosphorothionate (TBPS) binding assays using rat brain cortical membranes in the presence of 5 mM GABA has been described (Gee et al, J. Pharmacol. Exp. Ther. 1987, 241, 346-353; Hawkinson et al, Mol. Pharmacol. 1994, 46, 977-985; Lewin, A.H et al., Mol. Pharmacol. 1989, 35, 189-194).
Briefly, cortices are rapidly removed following decapitation of carbon dioxide-anesthetized Sprague-Dawley rats (200-250 g). The cortices are homogenized in 10 volumes of ice-cold 0.32 M sucrose using a glass/teflon homogenizer and centrifuged at 1500 x g for 10 min at 4° C. The resultant supernatants are centrifuged at 10,000 x g for 20 min at 4° C. to obtain the P2 pellets. The P2 pellets are resuspended in 200 mM NaCl/50 mM Na-K phosphate pH 7.4 buffer and centrifuged at 10,000 x g for 10 min at 4° C. This washing procedure is repeated twice and the pellets are resuspended in 10 volumes of buffer. Aliquots ([…]) of the membrane suspensions are incubated with 3 nM [^35S]-TBPS and […] aliquots of test drug dissolved in dimethyl sulfoxide (DMSO) (final 0.5%) in the presence of 5 mM GABA. The incubation is brought to a final volume of 1.0 mL with buffer. […] Following a 90 min incubation at room temp, the assays are terminated by filtration through glass fiber filters (Schleicher and Schuell No. 32) using a cell harvester (Brandel) and rinsed three times with ice-cold buffer. Filter bound radioactivity is measured by liquid scintillation spectrometry. Non-linear curve fitting of the overall data for each drug averaged for each concentration is done using Prism (GraphPad). […] The concentration of test compound producing 50% inhibition (IC50) of specific binding and the maximal extent of inhibition (Imax) are determined for the individual experiments with the same model used for the overall data and then the means ± SEM.s of the individual experiments are calculated.
Various compounds are or can be screened to determine their potential as modulators of [^35S]-TBPS binding in vitro. These assays are or can be performed in accordance with the above.

Row | Structure (SMILES) | IC50 [nM]
1 | C[C@H](Cn1cc(C#N)cn1)[C@H]1CCC[C@H]2[C@@H]3CC[C@@H]4C[C@](C)(O)CC[C@@H]4[C@H]3CC[C@]12C [Example 1, 1-((S)-2-((1R,4aS,4bR,6aR,8R,10aS,10bR,12aS)-8-hydroxy-8,12a-dimethyloctadecahydrochrysen-1-yl)propyl)-1H-pyrazole-4-carbonitrile] | < 100
2 | COC[C@@]1(O)CC[C@H]2[C@H](CC[C@@H]3[C@@H]2CC[C@]2(C)[C@@H]([C@H](C)Cn4cc(C#N)cn4)CCC[C@@H]32)C1 [Example 2, 1-((S)-2-((1R,4aS,4bR,6aR,8R,10aS,10bR,12aS)-8-hydroxy-8-(methoxymethyl)-12a-methyloctadecahydrochrysen-1-yl)propyl)-1H-pyrazole-4-carbonitrile] | < 100
3 | COC[C@@]1(O)CC[C@H]2[C@H](CC[C@@H]3[C@@H]2CC[C@]2(C)[C@@H]([C@@H](C)Cn4cc(C#N)cn4)CCC[C@@H]32)C1 [Example 3, 1-((R)-2-((1R,4aS,4bR,6aR,8R,10aS,10bR,12aS)-8-hydroxy-8-(methoxymethyl)-12a-methyloctadecahydrochrysen-1-yl)propyl)-1H-pyrazole-4-carbonitrile] | < 100
4 | C[C@@H](Cn1cc(C#N)cn1)[C@H]1CCC[C@H]2[C@@H]3CC[C@@H]4C[C@](C)(O)CC[C@@H]4[C@H]3CC[C@]12C [Example 4, 1-((R)-2-((1R,4aS,4bR,6aR,8R,10aS,10bR,12aS)-8-hydroxy-8,12a-dimethyloctadecahydrochrysen-1-yl)propyl)-1H-pyrazole-4-carbonitrile] | < 100
5 | CCC[C@@]1(O)CC[C@H]2[C@@H](CC[C@@H]3[C@@H]2CC[C@]2(C)[C@@H]([C@@H](C)Cn4nnc(C)n4)CCC[C@@H]32)C1 [Example 5, (2R,4aS,4bR,6aS,7R,10aS,10bR,12aS)-6a-methyl-7-((R)-1-(5-methyl-2H-tetrazol-2-yl)propan-2-yl)-2-propyloctadecahydrochrysen-2-ol] | 100 to 1000
6 | CCC[C@@]1(O)CC[C@H]2[C@@H](CC[C@@H]3[C@@H]2CC[C@]2(C)[C@@H]([C@H](C)Cn4nnnc4C)CCC[C@@H]32)C1 [Example 7, (2R,4aS,4bR,6aS,7R,10aS,10bR,12aS)-6a-methyl-7-((S)-1-(5-methyl-1H-tetrazol-1-yl)propan-2-yl)-2-propyloctadecahydrochrysen-2-ol] | ≥ 1000
7 | CCC[C@@]1(O)CC[C@H]2[C@@H](CC[C@@H]3[C@@H]2CC[C@]2(C)[C@@H]([C@@H](C)Cn4nnnc4C)CCC[C@@H]32)C1 [Example 8, (2R,4aS,4bR,6aS,7R,10aS,10bR,12aS)-6a-methyl-7-((R)-1-(5-methyl-1H-tetrazol-1-yl)propan-2-yl)-2-propyloctadecahydrochrysen-2-ol] | 100 to 1000
8 | CCC[C@@]1(O)CC[C@@]2(C)[C@@H](CC[C@@H]3[C@@H]2CC[C@]2(C)[C@@H]([C@@H](C)Cn4nnc(C)n4)CCC[C@@H]32)C1 [Example 9, (2R,4aS,4bS,6aS,7R,10aS,10bR,12aS)-4a,6a-dimethyl-7-((R)-1-(5-methyl-2H-tetrazol-2-yl)propan-2-yl)-2-propyloctadecahydrochrysen-2-ol] | 100 to 1000
9 | CCC[C@@]1(O)CC[C@@]2(C)[C@@H](CC[C@@H]3[C@@H]2CC[C@]2(C)[C@@H]([C@@H](C)Cn4nnnc4C)CCC[C@@H]32)C1 [Example 10, (2R,4aS,4bS,6aS,7R,10aS,10bR,12aS)-4a,6a-dimethyl-7-((R)-1-(5-methyl-1H-tetrazol-1-yl)propan-2-yl)-2-propyloctadecahydrochrysen-2-ol] | 100 to 1000
10 | C[C@@H]1CC[C@H]([C@@H](C)Cn2cc(C#N)cn2)[C@@]2(C)CC[C@H]3[C@@H](CC[C@@H]4C[C@](C)(O)CC[C@@H]43)[C@H]12 [Example 11, 1-((R)-2-((1R,4R,4aS,4bR,6aR,8R,10aS,10bR,12aR)-8-hydroxy-4,8,12a-trimethyloctadecahydrochrysen-1-yl)propyl)-1H-pyrazole-4-carbonitrile] | < 100
11 | C[C@@H]1CC[C@H]([C@H](C)Cn2cc(C#N)cn2)[C@@]2(C)CC[C@H]3[C@@H](CC[C@@H]4C[C@](C)(O)CC[C@@H]43)[C@H]12 [Example 12, 1-((S)-2-((1R,4R,4aS,4bR,6aR,8R,10aS,10bR,12aR)-8-hydroxy-4,8,12a-trimethyloctadecahydrochrysen-1-yl)propyl)-1H-pyrazole-4-carbonitrile] | < 100
12 | C[C@@H](Cn1cc(C#N)cn1)[C@H]1CC[C@H]2[C@@H]3CC=C4CC[C@](C)(O)CC[C@]4(C)[C@H]3CC[C@]12C [Example 17, 1-((R)-2-((1R,3aS,3bS,8S,10aR,10bS,12aS)-8-hydroxy-8,10a,12a-trimethyl-1,2,3,3a,3b,4,6,7,8,9,10,10a,10b,11,12,12a-hexadecahydrocyclohepta[a]cyclopenta[f]naphthalen-1-yl)propyl)-1H-pyrazole-4-carbonitrile] | < 100
13 | C[C@H](Cn1cc(C#N)cn1)[C@H]1CC[C@H]2[C@@H]3CC=C4CC[C@](C)(O)CC[C@]4(C)[C@H]3CC[C@]12C [Example 18, 1-((S)-2-((1R,3aS,3bS,8S,10aR,10bS,12aS)-8-hydroxy-8,10a,12a-trimethyl-1,2,3,3a,3b,4,6,7,8,9,10,10a,10b,11,12,12a-hexadecahydrocyclohepta[a]cyclopenta[f]naphthalen-1-yl)propyl)-1H-pyrazole-4-carbonitrile] | < 100
14 | C[C@@H](Cn1cc(C#N)cn1)[C@H]1CC[C@H]2[C@@H]3CC[C@H]4CC[C@](C)(O)CC[C@]4(C)[C@H]3CC[C@]12C [Example 19, 1-((R)-2-((1R,3aS,3bR,5aS,8S,10aS,10bS,12aS)-8-hydroxy-8,10a,12a-trimethyloctadecahydrocyclohepta[a]cyclopenta[f]naphthalen-1-yl)propyl)-1H-pyrazole-4-carbonitrile] | < 100
15 | C[C@H](Cn1cc(C#N)cn1)[C@H]1CC[C@H]2[C@@H]3CC[C@H]4CC[C@](C)(O)CC[C@]4(C)[C@H]3CC[C@]12C [Example 20, 1-((S)-2-((1R,3aS,3bR,5aS,8S,10aS,10bS,12aS)-8-hydroxy-8,10a,12a-trimethyloctadecahydrocyclohepta[a]cyclopenta[f]naphthalen-1-yl)propyl)-1H-pyrazole-4-carbonitrile] | < 100
16 | C[C@H](Cn1cc(C#N)cn1)[C@H]1CC[C@H]2[C@@H]3CC[C@@H]4C[C@](C)(O)CCC[C@@H]4[C@H]3CC[C@]12C [Example 22, 1-((S)-2-((1R,3aS,3bR,5aR,7R,10aS,10bR,12aS)-7-hydroxy-7,12a-dimethyloctadecahydrocyclohepta[a]cyclopenta[f]naphthalen-1-yl)propyl)-1H-pyrazole-4-carbonitrile] | < 100
17 | CN(C[C@H]1CCC[C@H]2[C@@H]3CC[C@@H]4C[C@](C)(O)CC[C@@H]4[C@H]3CC[C@]12C)C(=O)c1ccccc1 [Example 23, N-(((1S,4aS,4bR,6aR,8R,10aS,10bR,12aS)-8-hydroxy-8,12a-dimethyloctadecahydrochrysen-1-yl)-methyl)-N-methylbenzamide] | 100 to 1000
18 | C[C@@]1(O)CC[C@H]2[C@H](CC[C@@H]3[C@@H]2CC[C@]2(C)[C@@H](CNC(=O)c4ccccc4)CCC[C@@H]32)C1 [Example 24, N-(((1S,4aS,4bR6aR,8R,10aS,10bR,12aS)-8-hydroxy-8,12a-dimethyloctadecahydrochrysen-1-yl)methyl)benzamide] | 100 to 1000
19 | C[C@@]1(O)CC[C@H]2[C@H](CC[C@@H]3[C@@H]2CC[C@]2(C)[C@@H](CNS(=O)(=O)c4ccccc4)CCC[C@@H]32)C1 [Example 25, N-(((1S,4aS,4bR,6aR,8R,10aS,10bR,12aS)-8-hydroxy-8,12a-dimethyloctadecahydrochrysen-1-yl)methyl)benzenesulfonamide] | < 100
20 | CN(C[C@H]1CCC[C@H]2[C@@H]3CC[C@@H]4C[C@](C)(O)CC[C@@H]4[C@H]3CC[C@]12C)S(=O)(=O)c1ccccc1 [Example 26, N-(((1S,4aS,4bR,6aR,8R,10aS,10bR,12aS)-8-hydroxy-8,12a-dimethyloctadecahydrochrysen-1-yl)methyl)-N-methylbenzenesulfonamide] | < 100
